Assay: Bubble cell test, corrosion rate by linear polarization resistance (LPR)
Conditions: 80° C., CO2 saturated 3% NaCl brine; 100 ppm active; about 15 hours after CI injection; versus uninhibited carbon steel electrode
Experimental: Examples were conducted to assess the corrosion inhibition of a saturated alkyl diquaternary compounds of structure (IIIa) as described above using a bubble cell test to assess corrosion performance using linear polarization resistance testing. The corrosion inhibitor (CI) was evaluated without combination of any other chemistries or formulation components.
The corrosion rate was measured by Linear Polarization Resistance (LPR) techniques. The working electrode used was carbon steel (C1018 grade). The counter and reference electrodes were both 1018 carbon steel. The electrodes were all cleaned and polished prior to testing.
The test conditions included: 80° C., CO2 saturated fluids with 3% NaCl brine (100% brine) with continuous CO2 sparge, atmospheric pressure. A pre-corrosion time (i.e. with no corrosion inhibitor) was carried out for about 3 hours before 500 ppm of a 20% active chemistry in solvent blend was added. This is equivalent to 100 ppm of the active chemistry being introduced into the test cell. The inhibited corrosion rate at about 15 hours after CI chemical injection was noted and a percentage inhibition determined by comparing with the corrosion rate of a carbon steel electrode under otherwise the same conditions in the absence of chemical corrosion inhibitor after the same time of exposure to the corrosive environment.

In the case of `CCCCCCCCCCCCCCCCCC[N+](C)(C)CC(O)C[N+](CCO)(CCO)CCO` (stereo not shown) [CI Structure IIIa], the “% Protection” value is reported as greater than 99%.
